According to article PMC5101480 (Scientific Reports, 2016):

B1: K398C Rpn13_260-407: Rpn13_260-407 K398C mutant carrying site-directed paramagnetic spin-label (MTSL) (protein, UniProt Q16186 260-407, looked up, variant K398C)
chain: QPIQLSDLQSILATMNVPAGPAGGQQVDLASVLTPEIMAPILANADVQERLLPYLPSGESLPQTADEIQNTLTSPQFQQALGMFSAALASGQLGPLMCQFGLPAEAVEAANKGDVEAFAKAMQNNAKPEQKEGDTKDKCDEEEDMSLD
modifications: MTSL spin label

Legend:
[1] = tested on: OP91 in HeLa TRex Flp-In cells; assay: Steady state OP91 (model MLP) levels on co-expression, quantitative western blotting; assay type: cell-based; conditions: co-expression of SGTA-V5 compared with K160E/R164E mutant or PEX19 control; normalised to tubulin; n = 3; 24 h transfection, 24 h induction
Description: However, the ability of exogenous SGTA to enhance steady state MLP levels is offset when key residues of the carboxylate clamp, located in its TPR domain, are mutated. […] These finding are consistent with the proposal that a TPR based interaction of exogenous SGTA contributes to its effects on steady state MLP levels. […]
Figure 5 The SGTA-Rpn13 interaction alters steady state levels of a model MLP. […] Cells were then harvested directly into sample buffer and analysed by western blotting using primary antibodies to the N-terminus of opsin (OP91), the V5 tag (PEX19 and SGTA) or tubulin (loading control) in combination with secondary antibodies labelled with infrared dyes (LiCor) in order to produce quantitative signals as previously described. (B) OP91 signals were quantified (see Materials and Methods) and normalised to the tubulin loading control, values show standard errors for n = 3. […] (F) OP91 signals were quantified as described for (B), values show standard errors for n = 3. […]

[2] = tested on: OP91 in HeLa TRex Flp-In cells; conditions: overexpression of exogenous SGTA, model MLPs including OP91; cited from earlier work
Description: However, the ability of exogenous SGTA to enhance steady state MLP levels is offset when key residues of the carboxylate clamp, located in its TPR domain, are mutated. We recapitulated this experiment ...

[3] = target: T1, TPR domain of SGTA (SGTA_TPR) (Homo sapiens, UniProt O43765); assay: Paramagnetic relaxation enhancement (PRE) of 15N-labelled SGTA_TPR by MTSL labelled K398C Rpn13_260-407; assay type: binding; conditions: MTSL at K398C; 15N-labelled SGTA_TPR to spin labelled Rpn13 1:1.2; pH 6.0; residues Met-102, Lys-103, Glu-105, Lys-137, Ser-170, Asn-173, Ser-197, Lys-200, Ile-201, Glu-203, Ser-211
T1 construct: thioredoxin A (TxA) fusion (N, cleaved yes); hexahistidine tag (N, cleaved yes); made in house; host or cells: E. coli BL21(DE3) Rosetta
T1 sequence (O43765 84-211): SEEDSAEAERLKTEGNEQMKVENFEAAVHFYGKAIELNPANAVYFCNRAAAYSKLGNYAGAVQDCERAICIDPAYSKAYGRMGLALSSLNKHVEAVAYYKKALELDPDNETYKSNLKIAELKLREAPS
Experimental: Using CSP experiments combined with available mutagenesis data, an initial model of a 1:1 complex was generated by a HADDOCK based semi-rigid, data-driven approach using the DMSLD pentapeptide coordinates from the solution NMR structure of Rpn13 (PDB accession code: 2KR0) and the crystal structure of SGTA_TPR (PDB accession code: 2VYI). The three lowest energy HADDOCK clusters of the SGTA_TPR/DMSLD complex were analysed (Figure S7 and Table S1). […] Proximity dependent line broadening of ^15N-labelled SGTA_TPR backbone amide signals was monitored for intermolecular paramagnetic relaxation enhancement (PRE) effects upon addition of MTSL labelled K398C Rpn13_260-407 (Fig. 4B). Significant line broadening effects were observed upon binding in backbone amide peaks of SGTA_TPR residues Met-102, Lys-103, Glu-105, Lys-137, Ser-170, Asn-173, Ser-197, Lys-200, Ile-201, Glu-203, Ser-211, all present on the lower edge of its concave surface lining the entry to the central groove (Fig. 4C,D).
The Rpn13 C-terminal residue Lys 398 was mutated to a cysteine for paramagnetic spin labelling studies. Mutant Rpn13_260-407 was treated with excess TCEP for 2 hours to ensure cysteines were reduced, followed by dialysis against 10 mM potassium phosphate pH 6.0, 100 mM NaCl buffer to remove excess TCEP. […]

Molecule	change in steady state OP91 level [1]	steady state MLP levels, earlier studies [2]	distance of paramagnetic probe from SGTA_TPR residues with significant line broadening [3] [Å]
SGTA-V5: exogenous V5-tagged SGTA overexpressed from plasmid	three-fold increase	typically increases the steady-state levels of model MLPs	–
B1	–	–	≤ 20
